Mortality data for one compound are collected here from US10292388B2, “Malononitrile compounds for controlling animal pests” (BASF SE, priority 2012, dated 2019).

For assay [1], the system named is yellow fever mosquito (Aedes aegypti). In words: whole plant or invertebrate. As to conditions: 48 h, freshly hatched larvae in tap water, larval mortality after 2 days, read-out: mortality in comparison with untreated controls. Type of assay: in vivo. Here is the method: B.12 Yellow Fever Mosquito (Aedes aegypti)
For evaluating control of yellow fever mosquito (Aedes aegypti) the test unit consisted of 96-well-microtiter plates containing 200 μl of tap water per well and 5-15 freshly hatched A. aegypti larvae. The compounds or mixtures were formulated using a solution containing 75% water and 25% DMSO. Different concentrations of formulated compounds or mixtures were sprayed onto the insect diet at 2.5 μl, using a custom built micro atomizer, at two replications. After application, microtiter plates were incubated at 28±1° C., 80±5% relative humidity for 2 days. Larval mortality was then visually assessed.

The test system of assay [2] is boll weevil (Anthonomus grandis). In words: Boll weevil microtiter plate diet test. Type of assay: in vivo. As to conditions: 120 h, sprayed onto insect diet with eggs, egg and larval mortality after 5 days, read-out: mortality in comparison with untreated controls. As to the method:
B.9 Boll Weevil (Anthonomus grandis)
For evaluating control of boll weevil (Anthonomus grandis) the test unit consisted of 24-well-microtiter plates containing an insect diet and 20-30 A. grandis eggs. The compounds were formulated using a solution containing 75% v/v water and 25% v/v DMSO. Different concentrations of formulated compounds were sprayed onto the insect diet at 20 μl, using a custom built micro atomizer, at two replications. After application, microtiter plates were incubated at about 23±1° C. and about 50±5% relative humidity for 5 days. Egg and larval mortality was then visually assessed.

In general, mortality refers to the share of the test organisms that died. As for `C#Cc1ccc(CC(C#N)(C#N)c2ccc(C#N)cc2)cc1` [II-77, 2-(4-cyanophenyl)-2-[(4-ethynylphenyl)methyl]-propanedinitrile], the mortality at 2500 ppm in assay [1] and in assay [2] was no less than 75% each time.
